The values that follow come from patent US8114629B2, “Site specific incorporation of keto amino acids into proteins” (The Scripps Research Institute, priority 2002, dated 2012).

≈ marks a conversion by molar mass, not a printed value. Where two headings read alike, the source gives them in different places.

One series concerns E. coli DH10B cells. Description: growth of cells in the presence of the unnatural amino acid during Z domain expression. The following applies: 1 mM; cells transformed with mutRNA^TyrCUA, LW1RS and Z domain gene (Lys7TAG).
The subject of series [1] is E. coli cells expressing mutant TyrRS and mutRNA^TyrCUA. Description: in vivo assay based on suppression of the Asp112TAG codon in the CAT gene (chloramphenicol resistance), p-acetyl-L-phenylalanine synthetases. It is filed as cell-based. The following applies: Escherichia coli, read-out: IC50 value chloramphenicol, eleven mutant TyrRS.
For series [2], the system named is cells harboring the one of the three mutant TyrRS plasmids. Description: chloramphenicol resistance of cells harboring mutant TyrRS plasmids selected for m-acetyl phenylalanine. It is filed as cell-based. The text has this:
Preparation of mutant TyrRS library plasmids: A library of plasmids encoding mutant M. jannaschii TryRSs directed at meta-substituted tyrosine derivatives was constructed, generally following the methods described in Example 1 of WO 2002/085923. Briefly, six residues (Tyr^32, Ala^67, His^70, Gln^155, Asp^158, Ala^167) in the active site of M. jannaschii TyrRS that are within 6.9 Å of the meta-position of the aryl ring of bound tyrosine in the crystal structure of Bacillus stearothermophilus TyrRS were mutated to all 20 amino acids at DNA level using the NNK codon scheme as described in Example 1 above. The constructed plasmid library pBK-lib contained around 1×10^9 independent clones.
Evolution of orthogonal tRNA-synthetase pairs for incorporation of m-acetyl phenylalanine: After 3 rounds of positive selection and 2 rounds of negative selection, five candidate clones (SEQ ID NO: 17-21 of WO 2002/085923 and SEQ ID NO: 49-53 of WO 2002/085923) emerged whose survival in chloramphenicol was dependent on the addition of the unnatural amino acid. In the absence of m-acetyl phenylalanine, the IC50 of chloramphenicol resistance for cells harboring the one of the three mutant TyrRS plasmids is 20 μg/ml. In the presence of m-acetyl phenylalanine, the IC50 of resistance to chloramphenicol for the same cells is 100 μg/ml. […]

For another series, the target named is T1, mutRNA^TyrCUA/LW1RS (Methanocaldococcus jannaschii, UniProt Q57834, D158G/I159C/L162R/Y32L).
T1 construct: The mutant synthetase gene isolated from clone LW1 (LW1RS) was encoded in plasmid pBKLW1RS; expressed in transfected cells; host or cells: E. coli DH10B cotransformed with pLEIZ and pBK-LW1RS
Type of series: cell-based, Methanococcus jannaschii. The following applies: mutant Z domain (Lys7TAG); from signal-to-noise ratio of more than 1500 in the intact protein mass spectrum.

T1 sequence (Q57834 whole entry Y32L/D158G/I159C/L162R): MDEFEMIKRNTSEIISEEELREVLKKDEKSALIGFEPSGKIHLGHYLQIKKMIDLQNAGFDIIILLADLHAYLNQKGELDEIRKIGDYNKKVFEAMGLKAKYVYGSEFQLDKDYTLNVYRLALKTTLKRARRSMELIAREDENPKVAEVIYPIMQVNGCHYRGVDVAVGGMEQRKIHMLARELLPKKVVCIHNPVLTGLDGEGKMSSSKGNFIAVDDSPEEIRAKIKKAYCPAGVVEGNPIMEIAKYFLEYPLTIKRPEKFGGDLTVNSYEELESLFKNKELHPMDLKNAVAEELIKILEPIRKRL
Experimental for E. coli DH10B cells: E. coli DH10B cells cotransformed with pLEIZ and pBK-LW1RS were grown in minimal media containing 1% glycerol and 0.3 mM leucine (GMML media) with 25 μg/mL kanamycin, 34 μg/mL of chloramphenicol, and 1.0 mM p-acetyl-(±)-phenylalanine. When cells reach an OD600 of 0.5, isopropyl-β-D-thiogalactopyranoside (IPTG) (1 mM) was added to induce protein expression.
Cells transformed with the mutRNA^TyrCUA, LW1RS and Z domain gene (Lys7TAG) were grown in the presence of 1 mM p-acetyl-(±)-phenylalanine.
Text for mutRNA^TyrCUA/LW1RS: Protein expression and purification: Plasmid pLEIZ was used to express the Z-domain gene with an amber codon at the 7th position and a COOH-terminal His6 tag under the control of a bacteriophage T5 promoter and t0 terminator, and the mutRNA^TyrCUA gene under the control of the lpp promoter and rrnC terminator. The mutant synthetase gene isolated from clone LW1 (LW1RS) was encoded in plasmid pBKLW1RS under the control of the constitutive E. coli GlnRS promoter and terminator. E. coli DH10B cells cotransformed with pLEIZ and pBK-LW1RS were grown in minimal media containing 1% glycerol and 0.3 mM leucine (GMML media) with 25 μg/mL kanamycin, 34 μg/mL of chloramphenicol, and 1.0 mM p-acetyl-(±)-phenylalanine. When cells reach an OD600 of 0.5, isopropyl-β-D-thiogalactopyranoside (IPTG) (1 mM) was added to induce protein expression. After 5 hours, cells were pelleted and the protein was purified by Ni^2+ affinity chromatography under denaturing conditions according to the manufacturer's protocol (Qiagen, Valencia, Calif.). […] The yield of protein was measured by Bradford assay (BCA kit, Biorad, Hercules, Calif.). […]
Both the wt Z domain protein expressed by mutRNA^TyrCUA/wt TyrRS and the mutant Z domain protein expressed by the mutRNA^TyrCUA/LW1RS were analyzed by electrospray ionization Fourier transform ion cyclotron resonance mass spectrometry (FT-ICR MS). […]

`CC(=O)c1ccc(CC(N)C(=O)O)cc1` (racemic) [p-acetyl-(±)-phenylalanine]: the “effect on growth rate of cells” value in the series on E. coli DH10B cells is reported as “did not affect the growth rate of cells”.
As usually defined, the IC50 is the point on the concentration scale where inhibition reaches its midpoint. Take `O=C(N[C@H](CO)[C@H](O)c1ccc([N+](=O)[O-])cc1)C(Cl)Cl` [chloramphenicol]: the IC50 was found to be 9 µg/mL (≈ 27.9 µM) in series [1] (in the absence of p-acetyl-L-phenylalanine); 120 µg/mL in series [1] (in the presence of p-acetyl-L-phenylalanine); 100 µg/mL in series [2] (in the presence of m-acetyl phenylalanine, read-out: IC50 of resistance to chloramphenicol); 20 µg/mL (≈ 61.9 µM) in series [2] (read-out: IC50 of chloramphenicol resistance).
With `CC(=O)c1ccc(C[C@H](N)C(=O)O)cc1` [p-acetyl-L-phenylalanine], the “fidelity for the incorporation” value at mutRNA^TyrCUA/LW1RS was more than 99.8%.
